In this data set the target is T1, IKr channel (Homo sapiens, UniProt Q12809).
T1 construct: expressed in transfected cells; host or cells: Xenopus oocytes (cRNA injection)
As to the kind of experiment: IKr inhibition in xenopus oocytes overexpressing the IKr channel, two electrode voltage clamp. The format is cell-based. Conditions: methadone racemate 0.01 to 3 mM, FIG. 3. In general terms: In two-electrode clamp one electrode senses voltage and the other passes current.

T1 sequence (Q12809 whole entry): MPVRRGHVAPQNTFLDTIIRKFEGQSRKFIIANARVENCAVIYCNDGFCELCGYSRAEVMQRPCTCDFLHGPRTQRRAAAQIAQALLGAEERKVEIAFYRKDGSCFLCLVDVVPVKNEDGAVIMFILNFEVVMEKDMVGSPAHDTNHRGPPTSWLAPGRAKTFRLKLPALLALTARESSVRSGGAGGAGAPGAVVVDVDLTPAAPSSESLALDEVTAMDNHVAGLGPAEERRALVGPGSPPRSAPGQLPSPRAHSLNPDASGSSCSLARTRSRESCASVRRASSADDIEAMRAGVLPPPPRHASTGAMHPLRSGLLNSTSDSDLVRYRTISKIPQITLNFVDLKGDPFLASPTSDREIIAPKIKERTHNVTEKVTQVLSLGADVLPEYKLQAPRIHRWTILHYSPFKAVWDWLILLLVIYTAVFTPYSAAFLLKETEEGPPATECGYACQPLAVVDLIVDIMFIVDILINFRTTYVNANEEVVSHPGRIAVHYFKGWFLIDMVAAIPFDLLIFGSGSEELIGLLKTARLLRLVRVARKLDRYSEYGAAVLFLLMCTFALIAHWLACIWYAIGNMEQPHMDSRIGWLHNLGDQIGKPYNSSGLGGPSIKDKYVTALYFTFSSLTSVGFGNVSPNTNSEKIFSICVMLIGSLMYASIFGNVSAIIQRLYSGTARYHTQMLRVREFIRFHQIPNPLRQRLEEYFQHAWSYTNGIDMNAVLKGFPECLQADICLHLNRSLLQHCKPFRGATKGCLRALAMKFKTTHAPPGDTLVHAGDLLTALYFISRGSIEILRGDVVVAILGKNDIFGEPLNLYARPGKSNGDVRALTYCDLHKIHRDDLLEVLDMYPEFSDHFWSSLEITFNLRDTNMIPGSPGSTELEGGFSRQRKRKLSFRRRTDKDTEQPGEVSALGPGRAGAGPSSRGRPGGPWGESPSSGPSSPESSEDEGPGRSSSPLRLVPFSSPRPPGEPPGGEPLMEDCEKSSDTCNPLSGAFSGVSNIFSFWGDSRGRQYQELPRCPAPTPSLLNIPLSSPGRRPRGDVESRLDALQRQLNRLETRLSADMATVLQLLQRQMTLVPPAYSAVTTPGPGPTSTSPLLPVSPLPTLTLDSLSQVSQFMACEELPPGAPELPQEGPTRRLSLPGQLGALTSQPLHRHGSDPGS

`CCC(=O)C(CC(C)N(C)C)(c1ccccc1)c1ccccc1` (racemic) [methadone]: the “inhibition of the IKr current” value is listed as “dose related inhibition of the IKr current”.

Source of the values: patent US20100010096A1, “Methadone chiral isolate as an improved pharmaceutical” (priority 2006, published 2010).
